The text below walks through data of patent US20240003879A1, “METHODS FOR DIAGNOSIS AND MONITORING OF TOXIC EPIDERMAL NECROLYSIS” (INSERM (INSTITUT NATIONAL DE LA SANTÉ ET DE LA RECHERCHE …, priority 2020, published 2024).

Series [1] deals with Skw3 control transductant UNO H13 (Sulfamethoxazole-allergic donor). Nature of the series: TCR-transductant stimulation assay, control transductant UNO H13. In kind it is cell-based, human. Particulars: 24 h, heterologous EBV-transformed B cells, no drug 5.2.
Excerpt: (§1) Skw3 cell lines (Leibniz Institute DSMZ, Brunswick, Germany, (50)) were transduced as described previously (51). […] The resulting retroviruses were used to transduce the TCR-defective Skw3 cell line, which also expresses the human CD8 coreceptor. The TCR-transduced cells outgrowing in selective medium were picked, and the expression of the correct TCR α and β was further assessed by flow cytometry, using a FACS-Canto-I device (BD-Biosciences, San Jose, CA, USA). The transduced cells with stable TCR expression were selected for assessment of reactivity and specificity, which was measured by TCR-induced CD69 expression. Skw3 cell lines expressing the cognate TCR α and β chains were cocultured with autologous EBV-transformed B-lymphoblastoid cell lines (52) at 1:2 ratio at 37° C. Tested drugs were added to the cocultures with the indicated concentrations. After 24 h, cells were stained with anti-human CD3 (Biolegend) and anti-human CD69 (Biolegend) and analysed by flow cytometry. […] Experiments were repeated at least 2 times. […] Heterologous EBV-transformed B cells were also used to stimulate control transductants.
In series [2] the test system is TCRαβ Skw3 transfectant C2 (TCR of top clone of patient TEN-7). In kind it is cell-based, human. The conditions noted are these: 24 h, heterologous PBMCs from healthy donors, no drug 31.7.
Excerpt: Skw3 cell lines (Leibniz Institute DSMZ, Brunswick, Germany, (50)) were transduced as described previously (51). […] The resulting retroviruses were used to transduce the TCR-defective Skw3 cell line, which also expresses the human CD8 coreceptor. The TCR-transduced cells outgrowing in selective medium were picked, and the expression of the correct TCR α and β was further assessed by flow cytometry, using a FACS-Canto-I device (BD-Biosciences, San Jose, CA, USA). The transduced cells with stable TCR expression were selected for assessment of reactivity and specificity, which was measured by TCR-induced CD69 expression. Skw3 cell lines expressing the cognate TCR α and β chains were cocultured with autologous EBV-transformed B-lymphoblastoid cell lines (52) at 1:2 ratio at 37° C. Tested drugs were added to the cocultures with the indicated concentrations. After 24 h, cells were stained with anti-human CD3 (Biolegend) and anti-human CD69 (Biolegend) and analysed by flow cytometry. […] Experiments were repeated at least 2 times. […] Then, the productive rearranged TCRα and TCRβ chains were transduced into Skw3 cells, a TCR defective lymphoma line (28) (data not shown). […] The following day, we measured CD69 expression at the surface of Skw3 cells, as marker for TCR stimulation. […]
For series [3], the system named is Skw3 control transductant 17D (Abacavir-allergic donor). The series can be described thus: TCR-transductant stimulation assay, control transductant 17D. The format is cell-based, human. The conditions noted are these: control 17D, 24 h, heterologous EBV-transformed B cells, no drug 1.4.
Excerpt: as §1
The subject of series [4] is human CD45+ cells (PBMCs from a TEN patient). The series can be described thus: Human PBMC expansion in lamotrigine- versus vehicle-treated NSG recipient mice. The format is in vivo, mouse. The method, then:
NSG animals were adoptively transferred at day 0 with 1.10^6 millions PBMCs collected from a TEN patient, 1 year after disease recovery. Animals were then administrated with lamotrigine (the culprit drug; 0.1 mg/kg/day) or vehicle by oral gavage, every day, from day 4. Results depict the kinetic of human CD45+ cell expansion measured by flow cytometry in the blood of NSG mice throughout the protocol, or the spleen at day 29. Results are expressed as mean and individual % of humanization, calculated according to the following formula: % human CD45+ cells/% (mouse+human) CD45+ cells. Six mice per group were used in this experiment. NSG animals were adoptively transferred at day 0 with 1.10^6 millions PBMCs collected from a TEN patient (1 year after disease recovery) or from a healthy donor. Animals were then administrated with lamotrigine (the culprit drug; 0.1 mg/kg/day) or vehicle, by oral gavage every day, from day 4. Results depict the expansion of human CD45+ cells measured by flow cytometry in the spleen of NSG mice, 29 days after cell transfer. Results are expressed as mean and individual % of humanization, calculated according to the following formula: % human CD45+ cells/% (mouse+human) CD45+ cells. Six mice per group were used in this experiment. NSG animals were adoptively transferred at day 0 with 1.10^6 millions PBMCs collected from a TEN patient (1 year after disease recovery). Animals were then administrated with lamotrigine (the culprit drug; 0.1 mg/kg/day), by oral gavage every day, from day 4. Results depict the expression of CD38 (A) and Granzyme B and Granulysin (B) markers on CD4+ and CD8+ T cells as measured by flow cytometry in the spleen of NSG mice, 43 days after cell transfer. Model description: We generated a surrogate model of TEN disease in mouse, by reconstituting NSG animals with 1.10^6 millions of peripheral blood mononuclear cells (PBMCs) collected from a TEN patient, 1 year after disease recovery. The patients' T cells were then reactivated with the offending drug delivered to animals by oral gavage.

The test system of series [5] is relapsed or refractory multiple myeloma. Particulars: monotherapy or with dexamethasone or dexamethasone and an immunomodulatory drug; RRMM; doses up to 16 mg/kg intravenous infusion; cited from earlier work.
The test system of another series is NK cells. Particulars: preclinical data; cited from earlier work.
The subject of series [6] is plasmablasts and NK cells. The conditions noted are these: cited from earlier work.
For series [7], the system named is relapsed or refractory multiple myeloma. The conditions noted are these: cited from earlier work.

Entries after “also recorded” stand apart in the source; their conditions may differ.

Take `CC(C)Cc1ccc(C(C)C(=O)O)cc1` (centres unmarked) [Ibuprofen]: the “% of CD69 expression in CD3+ transfectants, Concentration 1” value in series [1] (Ibuprofen 20 μg/ml) is reported as 4.6%. The “% of CD69 expression in CD3+ transfectants, Concentration 2” value in series [1] (Ibuprofen 100 μg/ml) is reported as 10.5%. For the same molecule, in series [1] (Ibuprofen 200 μg/ml), the “% of CD69 expression in CD3+ transfectants, Concentration 3” value turned out to be 12.4%.

As for `COc1ccnc(C[S+]([O-])c2nc3ccc(OC(F)F)cc3[nH]2)c1OC` (centres unmarked) [Pantoprazole], the “% of CD69 expression in CD3+ transfectants, Concentration 2” value in series [2] (Pantoprazole 10 μg/ml) turned out to be 40.1%; in series [3] (Abacavir 10 μg/ml, Pantoprazole 25 μg/ml), 1.8%. The “% of CD69 expression in CD3+ transfectants, Concentration 3” value was 47.4% in series [2] (Pantoprazole 50 μg/ml) and 1.7% in series [3] (Abacavir 20 μg/ml, Pantoprazole 50 μg/ml). In addition, the “% of CD69 expression in CD3+ transfectants, Concentration 1” value in series [3] (Abacavir 1 μg/ml, Pantoprazole 12.5 μg/ml) turned out to be 1.8%.

Turning to `Nc1nnc(-c2cccc(Cl)c2Cl)c(N)n1` [lamotrigine], the “expanded CD8+ T cells expressing CD38, Granzyme B and Granulysin markers” value in series [4] (lamotrigine 0.1 mg/kg/day from day 4, spleen, 43 days after cell transfer (FIG. 11)) is recorded as “significant part”. In addition, the “number of animals with a high % of humanization, culprit drug group versus vehicle group” value in series [4] (lamotrigine 0.1 mg/kg/day oral gavage from day 4, TEN patient PBMCs, blood and spleen, day 29 (FIG. 9)) is reported as “largely superior”. Moreover, the “proliferation/expansion of TEN PBMCs versus healthy donor PBMCs in response to lamotrigine” value in series [4] (lamotrigine 0.1 mg/kg/day oral gavage from day 4, spleen, 29 days after cell transfer (FIG. 10)) is reported as “Preferential expansion of TEN PBMCs; also recorded: superior ability of TEN cells to proliferate”.

On to “MOR202: fully human anti-CD38 antibody being developed by Morphosys (CAS Number 2197112-39-1)”, for which the safety and efficacy result in series [5] was “safe and effective”. Besides, the “effect on NK cells” value in the series with NK cells is on record as “reduces NK cells”.

Take “TAK-079: CD38-binding fully human IgG 1 λ mAb being developed by Takeda”: the “tolerability in healthy populations” value in series [6] (healthy populations) is listed as “well tolerated”. The “depletion of plasmablasts and NK cells” value in series [6] (subcutaneous injection) was “more durable in depleting plasmablasts and NK cells”. Besides, the objective response rate in series [7] (heavily pre-treated patients with RRMM, subcutaneous injection) is recorded as 43%. In series [7] (human, in vivo, sc), the safety/tolerability in patients result is “safe and well-tolerated”.
